# Results: patent US20170165317A1, “METHOD FOR MITIGATING OR ALLEVIATING SYNAPTIC AND COGNITIVE DEFICITS” (Trustees of Dartmouth College, priority 2013, published 2017)
# What was measured:
# CA1 hippocampal region = assay: LTP of fEPSPs in CA1 of acute hippocampal slices exposed to protofibrillar Aβ42; type: cell-based, mice; settings: 50 nM VO-OHpic 1 hour before addition of 1 μM Aβ42
# Procedure: (§1) Mice were anesthetized with sodium pentothal (20 mg/kg ip) and decapitated. The brain was rapidly removed to ice-cold, oxygenated, dissection solution. Coronal slices (300 μm) were made with a vibratome (LEICA VT1200S) and slices were moved to a recovery chamber containing aCSF at room temperature for at least 1.5 hour before recording.
# A concentric bipolar platinum-iridium stimulation electrode and a low-resistance glass recording microelectrode filled with aCSF (3-4 MΩ resistance) were placed in CA1 stratum radiatum to record the extracellular field excitatory postsynaptic potentials (fEPSPs). For each slice, an input-output curve was recorded to compare basal synaptic transmission at different conditions. This curve was also used to set the baseline fEPSP at ≈30% (for LTP experiments) or ≈50% (for LTD experiments) of maximal slope. Baseline stimulation was delivered every 15 seconds (0.01 ms duration pulses) for at least 20 minutes before beginning the experiment to ensure stability of the response. LTP was induced by using θ-burst stimulation (4 pulses at 100 Hz, with the bursts repeated at 5 Hz and each tetanus including three 10-burst trains separated by 15 seconds). LTD was induced using 900 pulses at 1 Hz. Responses were recorded for 1 hour after induction of LTP or LTD. […]
# [1] = system: hippocampal CA3 and CA1 cells from acute slices; assay: fEPSP input-output curve (basal synaptic transmission) in acute hippocampal slices exposed to protofibrillar Aβ42; type: cell-based, mice
# Procedure: as §1
# A concentric bipolar platinum-iridium stimulation electrode and a low-resistance glass recording microelectrode filled with aCSF (3-4 MΩ resistance) were placed in CA1 stratum radiatum to record the extracellular field excitatory postsynaptic potentials (fEPSPs). For each slice, an input-output curve was recorded to compare basal synaptic transmission at different conditions. This curve was also used to set the baseline fEPSP at ≈30% (for LTP experiments) or ≈50% (for LTD experiments) of maximal slope. Baseline stimulation was delivered every 15 seconds (0.01 ms duration pulses) for at least 20 minutes before beginning the experiment to ensure stability of the response. LTP was induced by using θ-burst stimulation (4 pulses at 100 Hz, with the bursts repeated at 5 Hz and each tetanus including three 10-burst trains separated by 15 seconds). LTD was induced using 900 pulses at 1 Hz. Responses were recorded for 1 hour after induction of LTP or LTD.
# Dissection solution (employed for slicing) composition: 10 mM D-glucose, 4 mM KCl, 26 mM NaHCO3, 233.7 mM sucrose, 5 mM MgCl2, 1:1000 Phenol Red. Artificial CSF (employed for recovery and recording) composition: 119 mM NaCl, 2.5 mM KCl, 1 mM NaH2PO4, 11 mM glucose, 1.2 mM MgCl2, 2.5 mM CaCl2. Osmolarity was adjusted to […].
# For the first approach, protofibrillar Aβ was prepared by promoting aggregation under high-salt conditions (258 μM Aβ42, room temperature incubation (Jan, et al. (2010) Nat. Protoc. 5:1186-1209). The kinetics of Aβ42 aggregation were followed by thioflavin T fluorescence and SDS-PAGE western blot analysis with the N-terminal anti-Aβ antibody 6E10. Also, the heterogeneous nature of these Aβ42 assemblies was evidenced by electron microscopy. Synaptic function was assessed by electrophysiological recordings of field excitatory postsynaptic potential (fEPSPs) between hippocampal CA3 and CA1 cells from acute slices prepared from 5-month-old mice. The results indicated a ≈60% decrease in the magnitude of synaptic transmission (input-output curve) when slices were incubated for 2 hours in aCSF containing pathogenic protofibrillar Aβ42 species (1 μM). This decrease in the basal synaptic transmission was prevented when Aβ was added to slices that were preincubated with the PTEN inhibitor (50 nM VO-OHpic) for 1 hour (VO-OHpic and Aβ were also present in the perfusion solution during electrophysiological recordings). VO-OHpic alone had no effect on basal synaptic transmission. […] The potency and specificity of this inhibitor have been documented previously (Rosivatz, et al. (2006) ACS Chem. Biol. 1:780-790).
# The effect of these peptides on Aβ-treated neurons was subsequently tested.
smiles,measurement,setting,value
O=C(O)c1ncccc1O.O=C(O)c1ncccc1O.[O]=[V][O-] [VO-OHpic],LTP expression in presence of Aβ42,CA1 hippocampal region,rescued the expression of LTP
same,Aβ42-induced decrease in basal synaptic transmission,"[1]; 50 nM VO-OHpic preincubated 1 hour, then 1 μM protofibrillar Aβ42 for 2 hours",prevented
same,"basal synaptic transmission, inhibitor alone","[1]; VO-OHpic alone, no Aβ",no effect
